Earlier results on 1 molecule are cited in patent US20170176475A1, “NOVEL METHODS AND KITS FOR DETECTING A RIFAMYCIN, OR DERIVATIVE OR ANALOGUE THEREOF” (DREXEL UNIVERSITY, priority 2014, published 2017).

Take `CO[C@H]1/C=C/O[C@@]2(C)Oc3c(C)c(O)c4c(O)c(c(/C=N/N5CCN(C)CC5)c(O)c4c3C2=O)NC(=O)/C(C)=C\C=C\[C@H](C)[C@H](O)[C@@H](C)[C@@H](O)[C@@H](C)[C@H](OC(C)=O)[C@@H]1C` [rifampicin, (7S,9E,11S,12R,13S,14R,15R,16R,17S, 18S,19E,21Z)-2,15,17,27,29-pentahydroxy-11-methoxy-3,7,12,14,16,18,22-heptamethyl-26-{(E)-[(4-methylpiperazin-1-yl)imino]methyl}-6,23-dioxo-8,30-dioxa-24-azatetracyclo [23.3.1.1^4,7.0^5,28]triaconta-1(28),2,4,9,19,21,25(29),26-octaen-13-yl acetate]: the “time by which nearly all the drug in the bile is present in the deacetylated form” value (bile, normal metabolizing patients) is not above 6 h. Besides, the “time to peak plasma drug concentrations after intake” value (orally administered) is “two to four”.
